Test results reported in article PMC10101151 (Bioorganic & medicinal chemistry letters, 2022).

What was measured:
P. aeruginosa AR-0239 = assay: colistin MIC in absence or presence of RMA; type: cell-based; conditions: for fold reduction of colistin MIC: compound at 1 μg/mL, AR-0239
P. aeruginosa AR-0257 = assay: colistin MIC in absence or presence of RMA; type: cell-based; conditions: for fold reduction of colistin MIC: compound at 1 μg/mL, AR-0257
[1] = system: 8 different MDR Gram-negative bacteria; assay: colistin MIC across the panel of strains; type: cell-based; conditions: for Colistin MIC in the presence of compound, strains that contain the mcr genes: compound at 1 μg/mL
mitochondria = conditions: in vitro and in mice for 6p; cited from earlier work
E. coli AR-0493 = assay: colistin MIC in absence or presence of RMA; type: cell-based; conditions: colistin alone; mcr-1
E. coli AR-0538 = assay: colistin MIC in absence or presence of RMA; type: cell-based; conditions: colistin alone; mcr-2
S. Typhimurium AR-0539 = assay: colistin MIC in absence or presence of RMA; type: cell-based, Salmonella Typhimurium; conditions: colistin alone; mcr-3
S. Typhimurium AR-0635 = assay: colistin MIC in absence or presence of RMA; type: cell-based, Salmonella Typhimurium; conditions: colistin alone; mcr-4
K. pneumoniae AR-0497 = assay: colistin MIC in absence or presence of RMA; type: cell-based; conditions: colistin alone; mcr-1
A. baumannii AR-0310 = assay: colistin MIC in absence or presence of RMA; type: cell-based; conditions: colistin alone

Q: For `Clc1cccc(Nc2nc3nonc3nc2Nc2cccc(Cl)c2)c1` [5l], which “fold reduction of colistin MIC” value (P. aeruginosa AR-0239) is on record?
A: 4 folds

Q: And the “fold reduction of colistin MIC” value (P. aeruginosa AR-0257)?
A: 4 folds

Q: And the “Colistin MIC in the presence of compound, strains that contain the mcr genes” value [1]?
A: 1 to 2 µg/mL

Q: What does the source list for `Clc1ccc(Nc2nc3nonc3nc2Nc2ccc(Cl)cc2)cc1` [5m]?
A: fold reduction of colistin MIC (P. aeruginosa AR-0239): 4 folds; fold reduction of colistin MIC (P. aeruginosa AR-0257): 4 folds; Colistin MIC in the presence of compound, strains that contain the mcr genes [1]: 1 to 2 µg/mL

Q: For `FC(F)(F)Oc1ccc(Nc2nc3nonc3nc2Nc2ccc(OC(F)(F)F)cc2)cc1` [5p], which mitochondrial uncoupler activity (mitochondria) is on record?
A: poor uncoupler

Q: Which mitochondrial uncoupler activity (mitochondria) does the source give for `Oc1nc2nonc2nc1Nc1ccc(OC(F)(F)F)cc1` [6p] here?
A: one of the most potent uncouplers

Q: Which results are given for Colistin?
A: Colistin MIC (E. coli AR-0493): 8 µg/mL; Colistin MIC (E. coli AR-0538): 8 µg/mL; Colistin MIC (S. Typhimurium AR-0539): 8 µg/mL; Colistin MIC (S. Typhimurium AR-0635): 32 µg/mL; Colistin MIC (K. pneumoniae AR-0497): 8 µg/mL; Colistin MIC (A. baumannii AR-0310): 32 µg/mL; Colistin MIC (P. aeruginosa AR-0239; colistin alone): 4 µg/mL; Colistin MIC (P. aeruginosa AR-0257; colistin alone): 8 µg/mL; Colistin MIC, range over all strains ([1]; colistin alone, 8 strains): 4 to 32 µg/mL
